“Also recorded” adds a separate entry of the source.
Key:
[1] = Biodistribution in healthy male rats; format: in vivo, rats (Lewis); conditions: rat
Protocol: Biodistribution was studied in ten healthy male rats (Lewis, Liverpool Hospital Animal Facility) aged 6-8 weeks. Five rats were administered with ^68Ga-NODAGA-GSAO. The rats were housed singly in a cage with impervious absorbent matting and at 1 hour post administration 5 rats were sacrificed by lethal carbon dioxide overdose. Immediately post mortem, blood was sampled via cardiac puncture. Two of the 5 rats were then imaged by PET CT (GE Discovery 710). The PET CT scan comprised a CT scan (80 kVp, 20 mA, helical mode, reconstructed slice thickness of 0.625 mm) followed by a PET scan (2 bed positions, 7.5 min/bed position, 256×256 reconstruction matrix, slice thickness 3.27 mm).
All of the rats were then dissected, organs sampled and weighed and counted in a gamma counter, and the cpm value converted to MBq using a known standard. The activity in the remaining carcass was measured in a dose calibrator.
Biodistribution studies were performed in a further 5 rats at two hours following ^68Ga-NODAGA GSAO administration.
Injected activity was corrected by measuring residual activity left in the syringe after injection in a dose calibrator. To correct for any dose extravasated at the injection site the tail was harvested and the activity in the tail was subtracted from the administered activity. All calculations were decayed corrected using the injection time as the reference.
Biodistribution was expressed as % ID/g and % ID/organ. % retained activity was the sum total of all activity in all individually harvested organs as well as the activity in the remaining carcass as a percentage of the injected dose. % recovered activity was the sum total of all activity in all individually harvested organs as well as the activity in the remaining carcass and excreted activity in the impervious matting as a percentage of the injected dose.

[2] = In-human study of ^68Ga-CDI: biodistribution (PET CT, blood, urine); format: in vivo
Protocol: (§1) Subjects were encouraged to be well orally hydrated prior to ^68Ga-CDI administration, otherwise there was no preparation required. Two intravenous cannulas were placed (one for administration of ^68Ga-CDI and the other blood sampling during the study). Immediately prior to ^68Ga-CDI administration clinical assessment of participants was performed, vital signs (blood pressure, heart rate, respiratory rate, arterial oxygen saturation and temperature) measured and a 12-lead electrocardiogram (ECG) obtained and QTc calculated according to Bazett's formula to confirm eligibility. ^68Ga-CDI was administered as an intravenous bolus.
(§2) Eight serial PET scans were then performed from skull vertex to the proximal femora. The first PET scan commenced immediately following administration of ^68Ga-CDI, with subsequent scans commencing at approximately 7, 17, 29, 47, 64, 120 and 180 minutes after administration (+/−5 minutes). All scans were performed on a Phillips ingenuity TF 128 PET CT scanner (Philips Medical Systems, Cleveland) with acquisition times increasing for each subsequent scan ranging from 30 s/bed (immediately after administration) to 240 s/bed (at 180 minutes after administration) to compensate for excretion and decay. All PET scans were reconstructed using CT attenuation correction with a time of flight, list-mode, blob-based, ordered subsets maximum likelihood expectation maximization algorithm (BLOB-OS-TF) (reconstructed voxel size 4×4×4 mm).
Immediately prior to the scan commencing at approximately 47 minutes post administration a low-dose, non-contrast CT of the same region was performed for attenuation correction and localisation (of the first six scans during which time the patient had not moved) (44-120 mAs, 120-140 kV adjusted for body weight and body mass index, iDose 3 iterative reconstruction, reconstructed voxel size 1.17×1.17×3 mm). Ultra-low dose non-contrast CT (25 mAs, 100 kV, filtered back projection reconstruction, reconstructed voxel size 1.17×1.17×3 mm) was performed for attenuation correction immediately prior to the 120 minute and 180 minute PET scans.
(§3) During and immediately following completion of the scanning protocol, subjects were clinically assessed for adverse reactions and vital signs measured. Blood was collected for venous radioactivity measurements at 1, 2 and 3 hours following ^68Ga-CDI administration. Subjects were asked to void between 1.5 to 2 h and 2.75 to 3 h after ^68Ga-CDI administration, urine collected, the volume measured, and an aliquot counted in a gamma counter to determine activity concentration. Following completion of the scanning protocol, ECG was recorded, and blood collected for biochemical and haematological assessment.
(§4) For analysis of uptake and biodistribution in normal tissues and organs, spherical volumes of interest (VOIs) were drawn on the Digital Imaging and Communications in Medicine (DICOM) ^68Ga-CDI-PET emission data on a workstation (IntelliSpace Portal, V5.0.2.60000, Philips Medical System, Best, The Netherlands) by an experienced nuclear medicine physician over clearly tumor-free regions of organs. VOI diameter varied depending on organ size but where possible was at least 10 mm. Spherical VOIs were also drawn over all tumor deposits greater than 10 mm in diameter. These VOIs were replicated across all time points and the mean, maximum and standard deviation of the activity concentration (Bq/mL) of all VOIs at each time point was recorded. Activity concentration was used to calculate the % injected activity (% IA) for organs and tissues based on the masses of source organs for standard phantom male and female models (Stabin & Siegel, Health Phys. 2003; 85:294-310). Mean, maximum and standard deviation of the SUV for each VOI was also a calculated from the activity concentration using the slope intercept stored with the DICOM CDI PET emission data.

tumor deposits = test: In-human study of ^68Ga-CDI: tumor uptake; format: in vivo
Protocol: as §2, §4

[3] = In-human study of ^68Ga-CDI: safety and tolerability; format: in vivo; conditions: 5 subjects
Text: This open label, single arm interventional study recruited subjects with histologically or cytologically confirmed solid malignancy with at least one measurable lesion >2 cm. The study was approved by the South Eastern Sydney Local Health District Human Research Ethics committee (2019/ETH04821) and all subjects signed an informed consent form. […] Within 28 days of undergoing the study subjects were screened to ensure they met inclusion and exclusion criteria and written consent obtained. Although not an inclusion criteria for participation in this study, all patients also underwent an FDG PET CT between 3-11 days prior to CDI PET CT as part of standard of care.
as §1, §3
On the day following the ^68Ga-CDI PET CT subjects were clinically assessed for adverse reactions, vital signs, ECG obtained, and blood collected for biochemical and haematological assessment. […]

Human studies: safety = format: in vivo; conditions: patients 1-4, 200-207 MBq
Text: patient with squamous cell carcinoma of the oesophagus • 2. Person with metastatic ovarian carcinoma • 3. Person with metastatic cutaneous squamous cell carcinoma • 4. Person with invasive ductal breast carcinoma.

O=C(O)CNC(=O)[C@H](CSCC(=O)Nc1ccc([As](O)O)cc1)NC(=O)CC[C@H](NC(=O)CCC1C(=O)[O][68Ga]2[O]C(=O)CN3CCN(CCN1CC3)CC(=O)[O]2)C(=O)O (stereo partly drawn) [^68Ga-NODAGA-GSAO]
injected activity retained within the animal ([1]; 1 hour): 32.4%
mean total recovered activity ([1]; 1 hour): 84.9 % of injected activity
injected activity retained within the animal ([1]; 2 hours): 21.4%
total recovered activity ([1]; 2 hours): 75.3 % of injected activity
activity remaining in the blood pool, average ([2]; 1 hour): 12.2 % IA
average SUV kidneys ([2]; 1 hour post injection): 5.3 SUV
activity remaining in the blood pool, average ([2]; 2 hours): 8.8 % IA
average SUV kidneys ([2]; 2 hours post injection): 4.9 SUV
activity remaining in the blood pool, average ([2]; 3 hours): 7.7 % IA
average SUV kidneys ([2]; 3 hours post injection): 4.0 SUV
total activity excreted in urine ([2]; by 90 minutes): 39±18%
tumor uptake SUVmax (tumor deposits; breast carcinoma): 2.5
tumor uptake SUVmax (tumor deposits; metastatic colorectal carcinoma): 4.4
tumor uptake SUVmax (tumor deposits; metastatic cutaneous squamous cell carcinoma): 6.5
tumor uptake SUVmax (tumor deposits; metastatic ovarian carcinoma): 2.7
tumor uptake SUVmax (tumor deposits; squamous cell carcinoma of the oesophagus): 5.7
tumor retention (tumor deposits; tumor in 4 of the 5 patients): prolonged retention throughout the duration of imaging
adverse or pharmacologic effects [3]: no adverse or clinically detectable pharmacologic effects
vital signs, laboratory studies, electrocardiograms [3]: No significant changes
tolerability ([3]; 205±4.1 MBq i.v.): well tolerated
adverse events (Human studies: safety): no related or unrelated serious adverse events or adverse events; also recorded: safe, well-tolerated and without adverse effects

— US20250269072A1, “PROCESSES FOR PREPARING RADIOLABELLED CONJUGATES” (CENTENARY INSTITUTE OF CANCER MEDICINE AND CELL BIOLOGY, priority 2021, published 2025)
